According to article PMC5431190, “Investigation of cationicity and structure of pseudin-2 analogues for enhanced bacterial selectivity and anti-inflammatory activity” (Scientific Reports, 2017):
In brackets after ≈: the same amount, converted by molar mass. Residues, ends and D or L forms follow the SMILES beside them.

Key:
[1] = system: S. aureus 3089(R) (MRSA 3089); assay type: cell-based, Staphylococcus aureus; settings: multidrug-resistant strain; 1% peptone media, 16 h at 37 °C
[2] = system: S. aureus 3108(R) (MRSA 3108); assay type: cell-based, Staphylococcus aureus; settings: multidrug-resistant strain; 1% peptone media, 16 h at 37 °C
[3] = system: Salmonella typhimurium KCTC 1926; assay type: cell-based; settings: standard strain KCTC 1926; 1% peptone media, 16 h at 37 °C; three independent experiments in triplicate, SD 14.0%
Description: (§1) Four Gram-negative bacteria species (Escherichia coli KCTC 1682, Acinetobacter baumannii KCTC 2508, Pseudomonas aeruginosa KCTC 1637 and Salmonella typhimurium KCTC 1926) and three Gram-positive bacteria species (Staphylococcus aureus KCTC 1621, Bacillus subtilis KCTC 3028 and Staphylococcus epidermidis KCTC 1917) were procured from the Korean Collection for Type Cultures (KCTC). Multi-drug-resistant Gram-negative bacteria (Salmonella typhimurium CCARM 8003 and 8007, Escherichia coli CCARM 1229 and 1238, Pseudomonas aeruginosa CCARM 2002 and 2095 and Acinetobacter baumannii CCARM 12035 and 12036) were obtained from the Culture Collection of Antibiotic-Resistant Microbes (CCARM). To determine MICs, bacteria were cultured in Luria-Bertani (LB) medium for overnight at 37 °C. An aliquot of the culture was incubated in 1% peptone media at 37 °C until mid-log phase. 100 μl of serial 2-fold diluted peptides were treated in 96 well plates and added to 100 μl of 2 × 10^6 CFU/ml bacterial suspensions in 1% peptone media for 16 h at 37 °C.

[4] = system: Gram-negative bacteria (E. coli, A. baumannii, P. aeruginosa, S. typhimurium); assay type: cell-based; settings: average over the four Gram-negative standard strains
Description: as §1

[5] = system: Acinetobacter baumannii CCARM 12036 (MDRAB 12036); assay type: cell-based; settings: multidrug-resistant strain; 1% peptone media, 16 h at 37 °C
Description: as §1

[6] = system: Acinetobacter baumannii CCARM 12035 (MDRAB 12035); assay type: cell-based; settings: multidrug-resistant strain; 1% peptone media, 16 h at 37 °C
Description: as §1

[7] = system: Bacillus subtilis KCTC 3028; assay type: cell-based; settings: standard strain KCTC 3028; 1% peptone media, 16 h at 37 °C; three independent experiments in triplicate, SD 14.0%
Description: as §1

[8] = system: Escherichia coli CCARM 1229 (MDREC 1229); assay type: cell-based; settings: multidrug-resistant strain; 1% peptone media, 16 h at 37 °C
Description: as §1

[9] = system: Staphylococcus epidermidis KCTC 1917; assay type: cell-based; settings: standard strain KCTC 1917; 1% peptone media, 16 h at 37 °C; three independent experiments in triplicate, SD 14.0%
Description: as §1

[10] = system: Staphylococcus aureus KCTC 1621; assay type: cell-based; settings: standard strain KCTC 1621; 1% peptone media, 16 h at 37 °C; three independent experiments in triplicate, SD 14.0%
Description: as §1

[11] = system: Pseudomonas aeruginosa CCARM 2002 (MDRPA 2002); assay type: cell-based; settings: multidrug-resistant strain; 1% peptone media, 16 h at 37 °C
Description: as §1

[12] = system: Acinetobacter baumannii KCTC 2508; assay type: cell-based; settings: standard strain KCTC 2508; 1% peptone media, 16 h at 37 °C; three independent experiments in triplicate, SD 14.0%
Description: as §1

[13] = system: Gram-positive bacteria (S. aureus, B. subtilis, S. epidermidis); assay type: cell-based; settings: average over the three Gram-positive standard strains
Description: as §1

[14] = system: Pseudomonas aeruginosa KCTC 1637; assay type: cell-based; settings: standard strain KCTC 1637; 1% peptone media, 16 h at 37 °C; three independent experiments in triplicate, SD 14.0%
Description: as §1

[15] = system: Salmonella typhimurium CCARM 8007 (MDRST 8007); assay type: cell-based; settings: multidrug-resistant strain; 1% peptone media, 16 h at 37 °C
Description: as §1

[16] = system: Escherichia coli KCTC 1682; assay type: cell-based; settings: standard strain KCTC 1682; 2-fold dilutions, 1% peptone media, 2 × 10^6 CFU/ml suspension, 16 h at 37 °C; three independent experiments in triplicate, SD 14.0%
Description: as §1

[17] = system: Salmonella typhimurium CCARM 8003 (MDRST 8003); assay type: cell-based; settings: multidrug-resistant strain; 1% peptone media, 16 h at 37 °C
Description: as §1

[18] = system: Escherichia coli CCARM 1238 (MDREC 1238); assay type: cell-based; settings: multidrug-resistant strain; 1% peptone media, 16 h at 37 °C
Description: as §1

[19] = system: Pseudomonas aeruginosa CCARM 2095 (MDRPA 2095); assay type: cell-based; settings: multidrug-resistant strain; 1% peptone media, 16 h at 37 °C
Description: as §1

[20] = system: S. aureus 3126(R) (MRSA 3126); assay type: cell-based, Staphylococcus aureus; settings: multidrug-resistant strain; 1% peptone media, 16 h at 37 °C
[21] = system: human red blood cells (hRBCs); assay: Haemolytic activity; assay type: cell-based; settings: 1 h at 37 °C
Experimental: Peptide-induced lysis of human red blood cells (hRBCs) was determined as follows. Fresh hRBCs were washed 2–3 times with phosphate-buffered saline (PBS) by centrifugation for 5 min at 2500 rpm at 4 °C. Peptides in PBS were incubated with 4% (v/v) hRBCs for 1 h at 37 °C. Samples were then centrifuged for 5 min at 1000 × g. The absorbance of the supernatant at 405 nm was used as a measure of haemolysis. As a positive control, 100% haemolysis was obtained by treating hRBCs with 0.1% Triton X-100.

| SMILES | MIC, MRSA 3089 [1] [µM] | MIC, MRSA 3108 [2] [µM] | MIC, S. typhimurium [3] [µM] | Average MIC, Gram-negative [4] [µM] | MIC, MDRAB 12036 [5] [µM] | MIC, MDRAB 12035 [6] [µM] | MIC, B. subtilis [7] [µM] | MIC, MDREC 1229 [8] [µM] | MIC, S. epidermidis [9] [µM] | MIC, S. aureus [10] [µM] | MIC, MDRPA 2002 [11] [µM] | MIC, A. baumannii [12] [µM] | Average MIC, Gram-positive [13] [µM] | MIC, P. aeruginosa [14] [µM] | MIC, MDRST 8007 [15] [µM] | MIC, E. coli [16] [µM] | MIC, MDRST 8003 [17] [µM] | MIC, MDREC 1238 [18] [µM] | MIC, MDRPA 2095 [19] [µM] | MIC, MRSA 3126 [20] [µM] | other results |
| --- | --- | --- | --- | --- | --- | --- | --- | --- | --- | --- | --- | --- | --- | --- | --- | --- | --- | --- | --- | --- | --- |
| CC[C@H](C)[C@H](NC(=O)CN)C(=O)NCC(=O)N[C@@H](C)C(=O)N[C@H](C(=O)N[C@@H](CC(C)C)C(=O)N[C@@H](CCCCN)C(=O)N[C@H](C(=O)N[C@@H](CC(C)C)C(=O)N[C@H](C(=O)N[C@H](C(=O)NCC(=O)N[C@@H](CC(C)C)C(=O)N1CCC[C@H]1C(=O)N[C@@H](C)C(=O)N[C@@H](CC(C)C)C(=O)N[C@H](C(=O)N[C@@H](CO)C(=O)N[C@@H](Cc1c[nH]c2ccccc12)C(=O)N[C@H](C(=O)N[C@@H](CCCCN)C(=O)N[C@@H](CCCNC(=N)N)C(=O)N[C@@H](CCCCN)C(=O)N[C@@H](CCCNC(=N)N)C(=O)N[C@@H](CCC(N)=O)C(=O)N[C@@H](CCC(N)=O)C(N)=O)[C@@H](C)CC)[C@@H](C)CC)[C@@H](C)O)[C@@H](C)O)C(C)C)C(C)C [Melittin, reference compound] | 2 (≈ 5.69 µg/mL) | 2 (≈ 5.69 µg/mL) | 8 (≈ 22.8 µg/mL) | 5 | 4 (≈ 11.4 µg/mL) | 4 (≈ 11.4 µg/mL) | 4 (≈ 11.4 µg/mL) | 4 (≈ 11.4 µg/mL) | 2 (≈ 5.69 µg/mL) | 4 (≈ 11.4 µg/mL) | 2 (≈ 5.69 µg/mL) | 4 (≈ 11.4 µg/mL) | 3.33 | 4 (≈ 11.4 µg/mL) | 8 (≈ 22.8 µg/mL) | 4 (≈ 11.4 µg/mL) | 8 (≈ 22.8 µg/mL) | 4 (≈ 11.4 µg/mL) | 2 (≈ 5.69 µg/mL) | 2 (≈ 5.69 µg/mL) | – |
| CC[C@H](C)[C@H](NC(=O)[C@H](C)NC(=O)[C@H](CCCCN)NC(=O)[C@H](Cc1c[nH]cn1)NC(=O)[C@@H](NC(=O)[C@@H]1CCCN1C(=O)[C@H](CCC(N)=O)NC(=O)[C@H](Cc1ccccc1)NC(=O)[C@@H](NC(=O)[C@H](CCCCN)NC(=O)[C@H](CCCCN)NC(=O)[C@H](CC(C)C)NC(=O)[C@H](C)NC(=O)[C@H](CC(N)=O)NC(=O)[C@H](CC(C)C)NC(=O)CN)C(C)C)[C@@H](C)CC)C(=O)N[C@@H](CCCCN)C(=O)N[C@@H](CCCCN)C(=O)N[C@H](C(=O)N[C@@H](CC(N)=O)C(=O)N[C@@H](CC(N)=O)C(=O)N[C@@H](Cc1c[nH]cn1)C(=O)N[C@H](C(=O)N[C@@H](CCC(N)=O)C(=O)O)C(C)C)[C@@H](C)CC [Ps-K14-K18-P] (H-GLNALKKVFQPIHKAIKKINNHVQ-OH) | 32 (≈ 87.7 µg/mL) | 32 (≈ 87.7 µg/mL) | 8 (≈ 21.9 µg/mL) | 7 | 8 (≈ 21.9 µg/mL) | 16 (≈ 43.8 µg/mL) | 32 (≈ 87.7 µg/mL) | 8 (≈ 21.9 µg/mL) | 64 (≈ 175 µg/mL) | 32 (≈ 87.7 µg/mL) | 16 (≈ 43.8 µg/mL) | 8 (≈ 21.9 µg/mL) | 42.67 | 8 (≈ 21.9 µg/mL) | 16 (≈ 43.8 µg/mL) | 4 (≈ 11 µg/mL) | 16 (≈ 43.8 µg/mL) | 8 (≈ 21.9 µg/mL) | 16 (≈ 43.8 µg/mL) | 64 (≈ 175 µg/mL) | haemolysis at 400 μM ([21]; 400 μM peptide, 4% hRBCs, PBS, 100% = 0.1% Triton X-100): 0.3%; MHC (minimal peptide concentration that produces haemolysis) ([21]; 4% (v/v) hRBCs in PBS, absorbance 405 nm, printed in both Gram-negative and Gram-positive sections): 400 µM |
